Here are results for one substance from paper PMC4430595 (European Journal of Clinical Pharmacology, 2015).

The conditions of data set [1]: human, in vivo.
Description: Subjects included men and non-pregnant women and, in study A or B, respectively, were ≥18 years or 20–79 years of age with a body mass index of 18–36 or 18.5–34 kg/m^2. Subjects were either healthy or had mild, moderate or severe renal impairment.
Subjects were assigned to the renal impairment strata based on assessment during pre-study screening. For study A, strata assignment was based on CLcr calculated using the Cockcroft-Gault (C–G) equation [12] […] For study B, assignment was based on the estimated glomerular filtration rate (eGFR) using the Modification of Diet in Renal Disease formula [13] […] Summary statistics for Study B were also prepared using the C–G equation [12] with and without normalization to body surface area. Creatinine assays were performed at each clinical site using UV absorbance assays at 512 nm to detect the yellow–red complex formed from the reaction of creatinine and picric acid under alkaline conditions.
In subjects with end-stage renal disease (ESRD), haemodialysis was initiated 2–4 h after study drug administration (study A only). Haemodialysis sessions were 4 h in duration, and when possible, a similar type of dialyzer at a similar blood flow rate was used across haemodialysis subjects.
Blood samples (5–6 ml) were collected in sodium heparin glass tubes and stored chilled until the plasma was harvested by centrifugation and stored at approximately –70 °C or below until transferred frozen to a central laboratory for analysis. For subjects with varying degrees of renal impairment, samples were collected in study A pre-infusion, at 1, 2, 4, 6, 8, 12, 24, 36 and 48 h after the start of infusion for all groups and also at 72 and 96 h post-infusion for subjects with severe renal impairment or ESRD. In study B, samples were collected pre-infusion and at 0.5, 1, 1.5, 2, 3, 4, 6, 8, 10, 12, 16, 24, 36, 48, 60, 72, 84 and 96 h post-dose.
The method was linear over the range 0.25–100 μg/ml and the lower limit of quantification (LLQ) was 0.25 μg/ml. Dialysate samples from study A were analysed at a separate central laboratory (Covance Laboratories, Madison, WI, USA) using a similar validated LC–MS method. […] Study samples outside the calibration range were diluted and re-assayed. Dilution QC samples were included in batches where samples were diluted prior to analysis.
The CL reported for ESRD is the CL for the subjects (i.e., includes residual clearance and any dialysis clearance).
For data set [2] the following is noted: data on file, cited from earlier work.

Like-named read-outs stand apart in the source and are kept apart here.

By t½ is commonly meant the time in which the quantity being followed falls by half. On to hydroxypropylbetadex, for which the “CL (clearance)” value in data set [1] is 9.8 ± 4.3/0 mL/h/kg. Besides, the t½ in data set [2] (previously studied patients with severe renal impairment) is reported as 15.6 ± 6.0 h; in data set [2] (subjects with normal renal function), 2.5 ± 0.84 h.
